In patent US6737383B1, “Herbicidal oxadiazolidines” (priority 1999, dated 2004):

What was measured:
maize hybrid P33G26 = assay: Test G maize injury with safener-treated seed; details: absence of any safener; rates ranging from 140 to 1120 g/ha
How it was run: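 Maize hybrid P33G26 seed, treated with dichlormid, fenchlorazole-ethyl or naphthalic anhydride or left untreated, was sown in soil pots, then sprayed pre-emergence with several compound rates at 310 L/ha. Plants grew in a greenhouse (14 h day, about 27/24 °C day/night), with 4–5 replicates. Injury was scored visually against untreated controls 28 days after application.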

cocklebur = assay: Test C postemergence cocklebur; format: in vivo, Xanthium strumarium; details: 0 to 100 scale, 0 no effect, 100 complete control
How it was run: (§1)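 Greenhouse postemergence test: compound applied in solvent/surfactant formulation to established plants; visual scoring 0–100 against untreated controls after roughly two to three weeks (14–21 days).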

eastern black nightshade = assay: Test C postemergence eastern black nightshade; format: in vivo, Solanum ptycanthum; details: 0 to 100 scale, 0 no effect, 100 complete control
How it was run: as §1

fall panicum = assay: Test C postemergence fall panicum; format: in vivo, Panicum dichotomiflorum; details: 0 to 100 scale, 0 no effect, 100 complete control
How it was run: as §1

lambsquarters = assay: Test C postemergence lambsquarters; format: in vivo, Chenopodium album; details: 0 to 100 scale, 0 no effect, 100 complete control
How it was run: as §1

soybean = assay: Test C postemergence soybean; format: in vivo, Glycine max; details: 0 to 100 scale, 0 no effect, 100 complete control
How it was run: as §1

surinam grass = assay: Test C postemergence surinam grass; format: in vivo, Brachiaria decumbens; details: 0 to 100 scale, 0 no effect, 100 complete control
Description: Compounds evaluated in this test were formulated in a non-phytotoxic solvent mixture which included a surfactant and applied to plants that were grown for various periods of time before treatment (postemergence application). A mixture of sandy loam soil and greenhouse potting mix in a 60:40 ratio was used for the postemergence test.
Plantings of these crops and weed species were adjusted to produce plants of appropriate size for the postemergence test. All plant species were grown using normal greenhouse practices. Crop and weed species include arrowleaf sida (Sida rhombifolia), barnyardgrass (Echinochloa crus-galli), cocklebur (Xanthium strumarium), common ragweed (Ambrosia elatior), corn (Zea mays), cotton (Gossypium hirsutum), eastern black nightshade (Solanum ptycanthum), fall panicum (Panicum dichotomiflorum), field bindweed (Convolvulus arvensis), giant foxtail (Setaria faberii), hairy beggarticks (Bidens pilosa), ivyleaf morningglory (Ipomoea hederacea), johnsongrass (Sorghum halepense), ladysthumb smartweed (Polygonum persicaria), lambsquarters (Chenopodium album), large crabgrass (Digitaria sanguinalis), purple nutsedge (Cyperus rotundus), redroot pigweed (Amaranthus retroflexus), soybean (Glycine max), surinam grass (Brachiaria decumbens), velvetleaf (Abutilon theophrasti) and wild poinsettia (Euphorbia heterophylla).
Treated plants and untreated controls were maintained in a greenhouse for approximately 14, to 21 days, after which all treated plants were compared to untreated controls and visually evaluated. Plant response ratings, summarized in Table C, were based upon a 0 to 100 scale where 0 was no effect and 100 was complete control. A dash response (−) means no test result.

Green foxtail = assay: Test D green foxtail; format: in vivo
How it was run: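 Greenhouse pots, seeds in sandy loam; compounds formulated in non-phytotoxic solvent with surfactant; preemergence treatments went on the soil surface within one day of planting. Injury rated visually 14 to 21 days after application on a 0 (none) to 100 (complete control) scale.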

[1] = Rate 64 g/ha, Preemergence; 0 to 100 scale, 0 no injury, 100 complete control
[2] = Rate 125 g/ha, Preemergence; 0 to 100 scale, 0 no injury, 100 complete control

With `CC(C)N(C(=O)n1oc(=O)n(-c2ccccc2OC(F)(F)F)c1=O)c1ccc(F)cc1` [Compound 14] the Injury to maize (maize hybrid P33G26) was “severely injurious to maize”.

`CC(C)N(C(=O)n1oc(=O)n(C(C)C)c1=O)c1ccccc1` [Compound 113] was tested, and the “Plant response rating, Cocklebur” value (cocklebur; Rate 140 g/ha) was 5, the “Plant response rating, Cocklebur” value (cocklebur; Rate 280 g/ha) was 50 and the “Plant response rating, Cocklebur” value (cocklebur; Rate 560 g/ha) was 50. For the same compound, the “Plant response rating, Cocklebur” value (cocklebur; Rate 1120 g/ha) was 50, the “Plant response rating E. blacknightsh” value (eastern black nightshade; Rate 140 g/ha) was 50 and the “Plant response rating E. blacknightsh” value (eastern black nightshade; Rate 280 g/ha) was 50. For the same compound, the “Plant response rating E. blacknightsh” value (eastern black nightshade; Rate 1120 g/ha) was 95, the “Plant response rating Fall panicum” value (fall panicum; Rate 140 g/ha) was 60 and the “Plant response rating Fall panicum” value (fall panicum; Rate 280 g/ha) was 80. The “Plant response rating Fall panicum” value (fall panicum; Rate 560 g/ha) was 85, the “Plant response rating Fall panicum” value (fall panicum; Rate 1120 g/ha) was 85 and the “Plant response rating Lambsquarters” value (lambsquarters; Rate 140 g/ha) was 0. The “Plant response rating Lambsquarters” value (lambsquarters; Rate 560 g/ha) was 20, the “Plant response rating Lambsquarters” value (lambsquarters; Rate 1120 g/ha) was 50 and the “Plant response rating, Soybean” value (soybean; Rate 140 g/ha) was 40. For the same compound, the “Plant response rating, Soybean” value (soybean; Rate 280 g/ha) was 70, the “Plant response rating, Soybean” value (soybean; Rate 560 g/ha) was 85 and the “Plant response rating, Soybean” value (soybean; Rate 1120 g/ha) was 85. The “Plant response rating, Surinam grass” value (surinam grass; Rate 140 g/ha) was 0, the “Plant response rating, Surinam grass” value (surinam grass; Rate 280 g/ha) was 40 and the “Plant response rating, Surinam grass” value (surinam grass; Rate 560 g/ha) was 90. For the same compound, the “Plant response rating, Surinam grass” value (surinam grass; Rate 1120 g/ha) was 90, the “Plant response rating, Green foxtail” value (Green foxtail; Preemergence; Rate 16 g/ha; 0 to 100 scale, 0 no injury, 100 complete control) was 80 and the “Plant response rating, Green foxtail” value (Green foxtail; Preemergence; Rate 32 g/ha; 0 to 100 scale, 0 no injury, 100 complete control) was 98. For the same compound, the “Plant response rating, Green foxtail” value (Green foxtail; Rate 16 g/ha; Preemergence; 0 to 100 scale, 0 no injury, 100 complete control) was 80, the “Plant response rating, Green foxtail” value (Green foxtail; Rate 32 g/ha; Preemergence; 0 to 100 scale, 0 no injury, 100 complete control) was 70 and the “Green foxtail plant response rating” value (Green foxtail; [1]) was 100. The “Plant response rating, Green foxtail” value (Green foxtail; [1]) was 100, the “Green foxtail plant response rating” value (Green foxtail; [2]) was 100 and the “Plant response rating, Green foxtail” value (Green foxtail; [2]) was 100.
